Reference: patent publication US5602146A, “4-iminoquinolines, processes for their preparation, and their use” (Hoechst Aktiengesellschaft, priority 1992, dated 1997)
Converted amounts (≈) assume the structure as drawn.

Assays:
[1] = test system: HIV; experiment: Testing of preparations against HIV in a cell culture (T-Cell culture assay); assay type: cell-based; conditions: Human immunodeficiency virus 1, 72 h; HIV-infected lymphocytes, 37° C. for 3 days; lowest concentration at which no giant cells occurred; read-out: T-Cell culture assay Minimum inhibitory concentration
Procedure: Testing of preparations against HIV in a cell culture
Description of the method
The complete medium additionally contains 20% of fetal calf serum and 40 IU/ml of recombinant interleukin 2. Cells:
Lymphocytes isolated from fresh donor blood by means of Ficol® gradient centrifugation are cultured, with addition of […] of phytohemagglutinin (Wellcome) in the complete medium at 37° C. under 5% of CO2 for 36 hours. After addition of 10% of dimethyl sulfoxide, the cells are frozen at a cell density of 5×10^6 and stored in liquid nitrogen. For the experiment, the cells are thawed, washed in RPMI medium and cultured in the complete medium for 3-4 days.
The test preparations were dissolved in dimethyl sulfoxide in a concentration of 16.7 mg/ml and diluted to 1 mg/ml in complete medium.
0.4 ml of medium was initially introduced into 24-well multiwell dishes. After addition of 0.1 ml of the dissolved preparation into the upper row of the dish, a geometric dilution series was produced by transferring in each case 0.1 ml. Preparation-free controls always contained 0.4 ml of complete medium with 0.5% of dimethyl sulfoxide.
Lymphocyte cultures having a cell count of 5×10^5 cells/ml were infected by addition of 1/50 of the volume of supernatant from HIV-infected lymphocyte cultures. The titer of these culture supernatants was determined by end point dilution with 1-5×10^6 infectious units/ml. After incubation at 37° C. for 30 minutes, the infected lymphocytes were centrifuged off and taken up again in the same volume of medium. In each case 0.6 ml of this cell suspension was introduced into each of the depression walls of the test plate. The batches were incubated at 37° C. for 3 days.
The infected cell cultures were examined under the microscope for the presence of giant cells, which indicate active multiplication of the virus in the culture. The lowest concentration of preparation at which no giant cells occurred was determined as the inhibitory concentration against HIV. As a control, the supernatants from the culture plates were investigated for the presence of the HIV antigen with the aid of an HIV antigen test in accordance with the manufacturer's information (Organon).

[2] = target: T1, HIV "Reverse Transcriptase" (Human immunodeficiency virus type 1 group M subtype B, UniProt P04585); experiment: Inhibition of HIV "Reverse Transcriptase" (Scintillation Proximity Assay); assay type: biochemical; conditions: RT-SPA, RT from HIV cloned in E. coli, 60 minutes (37° C.)
T1 construct: purchased HT-Biotechnology Ltd., Cambridge, UK; host or cells: E. coli
Procedure: Investigation of the substances for inhibition of HIV "Reverse Transcriptase"
The activity of reverse transcriptase (RT) was determined with the aid of a "Scintillation Proximity Assay" (SPA). The reagent kit for the RT-SPA was obtained from Amersham/Buchler (Braunschweig). The enzyme RT (from HIV cloned in E. coli) originated from HT-Biotechnology Ltd., Cambridge, UK.
The test was carried out in accordance with the method manual of the manufacturer Amersham--with the following modifications:
bovine serum albumin was added to the "assay" buffer to the final concentration of 0.5 mg/ml.
the test was carried out in Eppendorf reaction vessels with a batch volume of […].
the RT concentrate of the manufacturer (5000 U/ml) was diluted to an activity of 15 U/ml in tris-HCl buffer 20 mM; pH 7.2; 30% of glycerol.
the incubation time for the batches was 60 minutes (37° C.).
after the reaction had been stopped and after "development" with the bead suspension, […] of the batch were transferred to 4.5 ml of tris-HCl buffer, 10 mM; pH 7.4; 0.15M NaCl, and the tritium activity was measured in a β-counter.
Testing of the substances:
For a preliminary test of the inhibitor activity, the substances were dissolved in dimethyl sulfoxide (stock solution c=1 mg/ml) and tested in a dilution in dimethyl sulfoxide of 10^-1, 10^-2, 10^-3 and the like to determine IC50 values, the inhibitor stock solutions were further diluted in tris-HCl buffer, 50 mM, pH 8 and tested in suitable concentrations. The concentration associated with 50% enzyme inhibition was determined from the graph of RT activity against Log Cinh.

Compound | MIC [1] [µg/mL] | IC50 [2] [nM] | Reverse transcriptase assay IC50 [2] [µg/mL]
CCON=C1c2cc(Cl)ccc2NC(=O)C1(C)C [Example 2, anti-6-Chloro-3,3-dimethyl-4-(ethyloxyimino)-1,3-dihydroquinolin-2-one] | 0.2 (≈ 0.75 µM) | 82.5 | –
CCON=C1c2cc(Cl)ccc2NC(=S)C1(C)C [Example 3, anti-6-Chloro-3,3-dimethyl-4-(ethyloxyimino)-l,3-dihydroquinoline-2-thione] | 0.008 (≈ 0.0283 µM) | 14.1 | –
CCON=C1c2cc(Cl)ccc2NC(=O)C1(C)C [Example 4, syn-6-Chloro-3,3-dimethyl-4-(ethyloxyimino)-l,3-dihydroquinolin-2-one] | – | 37.5 to 375 | –
CCON=C1c2cc(Cl)ccc2NC(=S)C1(C)C [Example 5, syn-6-Chloro-3,3-dimethyl-4-(ethyloxyimino)-1,3-dihydroquinoline-2-thione] | – | – | 0.001 to 0.01
CC(C)ON=C1c2cc(Cl)ccc2NC(=O)C1(C)C [Example 6, anti-6-Chloro-3,3-dimethyl-4-(isopropyloxyimino)-l,3dihydroquinolin-2-one] | 0.008 (≈ 0.0285 µM) | 3.56 to 35.6 | –
CC(C)ON=C1c2cc(Cl)ccc2NC(=S)C1(C)C [Example 7, anti-6-Chloro-3,3-dimethyl-4-(isopropyloxyimino)-l,3-dihydroquinoline-2-thione] | 0.008 (≈ 0.027 µM) | 20.2 | –
CCCON=C1c2cc(Cl)ccc2NC(=O)C1(C)C [Example 8, anti-6-Chloro-3,3-dimethyl-4-(n-propyloxyimino)-l,3-dihydroquinolin-2-one] | 0.2 (≈ 0.712 µM) | 35.6 to 356 | –
CCCON=C1c2cc(Cl)ccc2NC(=S)C1(C)C [Example 9, anti-6-Chloro-3,3-dimethyl-4-(n-propyloxyimino)-1,3dihydroquinoline-2-thion] | 0.04 (≈ 0.135 µM) | 3.37 to 33.7 | –
CC1(C)C(=O)Nc2ccc(Cl)cc2C1=NOCc1ccccc1 [Example 10A, anti-4-(Benzyloxyimino)-6-chloro-3,3-dimethyl-1,3-dihydroquinolin-2-one] | – | > 30400 | –
CC1(C)C(=O)N(Cc2ccccc2)c2ccc(Cl)cc2C1=NOCc1ccccc1 [Example 10B, anti-(1-Benzyl)-4-(benzyloxyimino)-6-chloro-3,3-dimethyl-1,3-dihydroquinolin-2-one] | – | > 23900 | –
CC1(C)C(=S)Nc2ccc(Cl)cc2C1=NOCc1ccccc1 [Example 16] | – | 290 to 2900 | –
CC1(C)C(=O)Nc2ccc(Cl)cc2C1=NOCc1ccccc1[N+](=O)[O-] [Example 20] | – | 2680 to 26800 | –
CC1(C)C(=S)Nc2ccc(Cl)cc2C1=NOCc1ccccc1[N+](=O)[O-] [Example 21] | – | 256 to 2560 | –
CC1(C)C(=O)Nc2ccc(Cl)cc2C1=NOCc1cccc(Cl)c1 [Example 23] | – | 275 to 2750 | –
CC1(C)C(=S)Nc2ccc(Cl)cc2C1=NOCc1cccc(Cl)c1 [Example 24] | – | 26.4 to 264 | –
CC1(C)C(=S)Nc2ccc(Cl)cc2C1=NOCc1ccc(Cl)cc1 [Example 27] | – | 2640 to 26400 | –
CC1(C)C(=O)Nc2ccc(Cl)cc2C1=NOCc1ccccc1Cl [Example 29] | – | 2750 to 27500 | –
CC1(C)C(=S)Nc2ccc(Cl)cc2C1=NOCc1ccccc1Cl [Example 30] | – | 264 to 2640 | –
COCCON=C1c2cc(Cl)ccc2NC(=O)C1(C)C [Example 32] | 1 (≈ 3.37 µM) | 337 to 3370 | –
COCCON=C1c2cc(Cl)ccc2NC(=S)C1(C)C [Example 33] | 0.2 (≈ 0.639 µM) | ~32 | –
CON=C1c2cc(Cl)ccc2NC(=O)C1(C)C [Example 34] | – | 39.6 to 396 | –
CON=C1c2cc(Cl)ccc2NC(=S)C1(C)C [Example 35] | – | 3.72 to 37.2 | –
CCC1C(=O)Nc2ccc(Cl)cc2C1=NO (stereo not shown) [Example 38] | – | 4190 to 41900 | –
CCON=C1c2cc(Cl)ccc2NC(=O)C1CC (stereo not shown) [Example 39] | 1 (≈ 3.75 µM) | 37.5 to 375 | –
CCC1C(=O)Nc2ccc(Cl)cc2C1=NOC(C)C (stereo not shown) [Example 40] | – | 35.6 to 356 | –

Compound | MIC [1] [µg/mL] | IC50 [2] [nM] | Reverse transcriptase assay IC50 [2] [µg/mL]
CCC1C(=N)c2cc(Cl)ccc2NC1=S (stereo not shown) [Example 42] | – | 4190 to 41900 | –
CCON=C1c2cc(OC)ccc2NC(=S)C1(C)C [Example 43] | – | 3.59 to 35.9 | –
COc1ccc2c(c1)C(=NOC(C)C)C(C)(C)C(=O)N2 [Example 44] | – | ~36.2 | –
COc1ccc2c(c1)C(=NOC(C)C)C(C)(C)C(=S)N2 [Example 45] | – | 3.42 to 34.2 | –
C=CCON=C1c2cc(Cl)ccc2NC(=O)C1(C)C [Example 47] | – | 35.9 to 359 | –
C=CCON=C1c2cc(Cl)ccc2NC(=S)C1(C)C [Example 48] | 0.04 (≈ 0.136 µM) | 3.39 to 33.9 | –
CSCCON=C1c2cc(Cl)ccc2NC(=O)C1(C)C [Example 49] | – | 320 to 3200 | –
CSCCON=C1c2cc(Cl)ccc2NC(=S)C1(C)C [Example 50] | 0.2 (≈ 0.608 µM) | 30.4 to 304 | –
C#CCON=C1c2cc(Cl)ccc2NC(=O)C1(C)C [Example 51] | – | 36.1 to 361 | –
CCC(C)ON=C1c2cc(Cl)ccc2NC(=O)C1(C)C (stereo not shown) [Example 52] | – | 33.9 to 339 | –
CC(C)=NN=C1c2cc(Cl)ccc2NC(=S)C1(C)C [Example 62] | 0.04 (≈ 0.136 µM) | 3.4 to 34 | –
CCC(C)ON=C1c2cc(Cl)ccc2NC(=S)C1(C)C (stereo not shown) [Example 67] | 0.04 (≈ 0.129 µM) | 32.2 to 322 | –
CCON=C1c2cc(Cl)ccc2NC(=NO)C1(C)C [Example 70, anti-6-Chloro-3,3,-dimethyl-4-(ethyloxyimino)-2-hydroxyimino-1,3-dihydroquinoline] | – | 3.55 to 35.5 | –
CSc1ccc2c(c1)C(=NOC(C)C)C(C)(C)C(=O)N2 [Example 78] | – | 34.2 to 342 | –
CSc1ccc2c(c1)C(=NOC(C)C)C(C)(C)C(=S)N2 [Example 82] | < 0.08 | 32.4 to 324 | –
CC(C)ON=C1c2cc(OC(F)(F)F)ccc2NC(=S)C1(C)C [Example 87] | 0.04 (≈ 0.115 µM) | 28.9 to 289 | –
CCON=C1c2cc(Cc3ccncc3)ccc2NC(=O)C1(C)C [Example 103] | 0.04 (≈ 0.124 µM) | 30.9 to 309 | –
CCON=C1c2cc(Cc3ccncc3)ccc2NC(=S)C1(C)C [Example 104] | 0.04 (≈ 0.118 µM) | ~29.5 | –
CCON=C1c2cc(Cl)ccc2NC(=O)C12CCC2 [Example 114] | – | 21.5 | –
CC(C)ON=C1c2cc(Cl)ccc2NC(=S)C12CCCC2 [Example 117] | – | 3.1 to 31 | –
CC(C)ON=C1c2cc(Cl)ccc2NC(=S)C12CCC2 [Example 120] | – | 3.24 to 32.4 | –
CCON=C1c2cc(Cl)ccc2NC(=S)C12CCCC2 [Example 122] | 0.008 (≈ 0.0259 µM) | – | –
CC(C)ON=C1c2cc(Cl)ccc2NC(=O)C12CCCC2 [Example 123] | – | 3.26 to 32.6 | –
CCON=C1c2cc(Cl)ccc2N=C(Nc2ccc(Cl)cc2)C1(C)C [Example 132] | – | ~266 | –
anti-6-Chloro-3,3-dimethyl-4-(isopropylazino)-1,3-dihydroquinolin-2-one [Example 12] | – | – | 0.01 to 0.1
